The test system of one test is HeLa. Put plainly: HeLa cell cytotoxicity, dose response, cytotoxicity control for MITF activator project, CellTiter-Glo luminescence, cherry-pick samples (AID 540259). Format: functional, cell-based. The following applies: Homo sapiens. (In ATP-based viability assays light output follows the ATP content of the culture.)
The target of test [1] is T1, Polyadenylate-binding protein 1 (Homo sapiens, UniProt P11940). Put plainly: PABP1 MLLE–PAM2 binding inhibitor potency, dose response, biochemical, fluorescence polarization, FITC-PAM2 peptide (AID 602259). The class given is functional. The following applies: read-out: IC50_Mean. (In general: Fluorescence polarisation rises when a labelled molecule tumbles more slowly, as on binding a larger partner.)
T1 sequence (P11940 whole entry): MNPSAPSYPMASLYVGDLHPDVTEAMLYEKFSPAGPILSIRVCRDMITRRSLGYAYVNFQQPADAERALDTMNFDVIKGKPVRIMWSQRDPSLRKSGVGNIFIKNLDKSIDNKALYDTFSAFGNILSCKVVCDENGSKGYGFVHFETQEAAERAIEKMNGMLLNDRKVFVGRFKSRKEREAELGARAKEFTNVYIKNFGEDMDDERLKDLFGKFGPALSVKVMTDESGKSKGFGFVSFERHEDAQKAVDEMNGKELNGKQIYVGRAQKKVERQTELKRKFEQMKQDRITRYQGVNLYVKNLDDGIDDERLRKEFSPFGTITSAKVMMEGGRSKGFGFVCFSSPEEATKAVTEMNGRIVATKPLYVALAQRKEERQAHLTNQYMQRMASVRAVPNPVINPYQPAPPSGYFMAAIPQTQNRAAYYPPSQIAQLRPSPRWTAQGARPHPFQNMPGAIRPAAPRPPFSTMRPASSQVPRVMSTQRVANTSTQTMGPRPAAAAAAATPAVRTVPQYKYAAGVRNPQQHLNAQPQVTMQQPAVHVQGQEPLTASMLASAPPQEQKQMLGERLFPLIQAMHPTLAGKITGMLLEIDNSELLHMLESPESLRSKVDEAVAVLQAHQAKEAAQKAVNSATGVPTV

Test [2] has as its target T1, Polyadenylate-binding protein 1. Put plainly: PABP1 MLLE–PAM2 interaction inhibitors, dose response, miRNA deadenylation inhibitor project, biochemical, fluorescence polarization, Cy5-PAM2 peptide, secondary (AID 602260). The class given is functional. As to conditions: read-out: IC50_Mean.
Test [3] can be described thus: growth suppression of beta-catenin-knockout colon cells, dose response, cell-based, HCT116, human colon tumor (AID 1045).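 Further: HCT116 colon tumor cells with beta catenin knocked out; cells exposed to compound for 60 hours.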 The class given is functional.
Test [4] in a line: growth suppression of PTEN-null colon cells, dose response, cell-based, HCT116 PTEN knockout (AID 1047).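 Further: HCT116 colon tumor cells with PTEN knocked out; cells exposed to compound for 60 hours before readout; potency for loss of cell viability measured by luminescence.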 The class given is functional.
In another test the target is T2, Aminopeptidase N (Plasmodium falciparum FcB1/Columbia, UniProt O96935).
T2 sequence (O96935 whole entry): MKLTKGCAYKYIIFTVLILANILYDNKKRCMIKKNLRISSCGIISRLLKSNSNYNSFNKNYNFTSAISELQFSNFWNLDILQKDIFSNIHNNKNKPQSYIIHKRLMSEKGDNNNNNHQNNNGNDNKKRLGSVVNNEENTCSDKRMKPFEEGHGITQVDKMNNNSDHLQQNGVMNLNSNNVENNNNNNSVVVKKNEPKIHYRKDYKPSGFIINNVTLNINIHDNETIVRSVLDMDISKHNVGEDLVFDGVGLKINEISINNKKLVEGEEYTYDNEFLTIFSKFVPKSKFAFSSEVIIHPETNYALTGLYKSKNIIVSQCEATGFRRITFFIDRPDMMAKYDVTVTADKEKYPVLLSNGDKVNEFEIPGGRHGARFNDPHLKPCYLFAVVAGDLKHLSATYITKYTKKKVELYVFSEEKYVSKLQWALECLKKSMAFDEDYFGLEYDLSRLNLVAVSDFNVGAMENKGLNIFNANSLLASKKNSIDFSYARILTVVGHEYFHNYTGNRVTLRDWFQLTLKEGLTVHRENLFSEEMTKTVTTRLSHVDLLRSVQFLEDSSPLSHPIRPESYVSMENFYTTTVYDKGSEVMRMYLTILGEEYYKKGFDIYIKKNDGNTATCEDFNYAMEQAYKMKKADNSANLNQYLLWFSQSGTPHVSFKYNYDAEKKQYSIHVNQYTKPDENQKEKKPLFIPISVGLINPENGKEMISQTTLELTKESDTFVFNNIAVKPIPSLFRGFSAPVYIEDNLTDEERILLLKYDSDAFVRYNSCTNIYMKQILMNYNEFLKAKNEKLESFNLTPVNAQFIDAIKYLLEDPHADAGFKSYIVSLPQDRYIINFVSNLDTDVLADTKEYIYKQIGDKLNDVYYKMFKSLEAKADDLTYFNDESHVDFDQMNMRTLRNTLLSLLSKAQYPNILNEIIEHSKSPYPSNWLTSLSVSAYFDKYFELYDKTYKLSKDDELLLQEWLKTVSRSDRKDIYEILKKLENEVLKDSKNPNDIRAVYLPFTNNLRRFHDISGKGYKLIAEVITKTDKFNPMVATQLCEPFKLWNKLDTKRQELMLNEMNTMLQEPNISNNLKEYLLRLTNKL
As to the kind of experiment: P. falciparum M1AAP inhibitors, biochemical, fluorogenic H-Leu-NHMec substrate, 1536-well (AID 1445). On the set-up: species or system Plasmodium falciparum 3D7, 3D7.

Test [5] deals with Induced myeloid leukemia cell differentiation protein Mcl-1 (Homo sapiens, UniProt Q07820). The class given is functional.
Induced myeloid leukemia cell differentiation protein Mcl-1, sequence (Q07820 whole entry): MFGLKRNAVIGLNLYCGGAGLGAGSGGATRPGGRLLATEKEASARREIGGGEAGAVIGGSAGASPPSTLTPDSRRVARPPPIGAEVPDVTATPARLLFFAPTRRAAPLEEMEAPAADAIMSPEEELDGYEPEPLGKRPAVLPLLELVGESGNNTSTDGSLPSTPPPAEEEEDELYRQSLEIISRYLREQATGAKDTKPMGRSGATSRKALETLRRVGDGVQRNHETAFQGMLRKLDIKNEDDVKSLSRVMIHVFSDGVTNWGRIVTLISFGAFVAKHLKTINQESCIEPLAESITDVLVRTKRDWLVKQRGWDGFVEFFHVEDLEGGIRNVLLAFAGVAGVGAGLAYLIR
In test [6] the target is T3, High affinity choline transporter 1 (Homo sapiens, UniProt Q9GZV3).
T3 sequence (Q9GZV3 whole entry): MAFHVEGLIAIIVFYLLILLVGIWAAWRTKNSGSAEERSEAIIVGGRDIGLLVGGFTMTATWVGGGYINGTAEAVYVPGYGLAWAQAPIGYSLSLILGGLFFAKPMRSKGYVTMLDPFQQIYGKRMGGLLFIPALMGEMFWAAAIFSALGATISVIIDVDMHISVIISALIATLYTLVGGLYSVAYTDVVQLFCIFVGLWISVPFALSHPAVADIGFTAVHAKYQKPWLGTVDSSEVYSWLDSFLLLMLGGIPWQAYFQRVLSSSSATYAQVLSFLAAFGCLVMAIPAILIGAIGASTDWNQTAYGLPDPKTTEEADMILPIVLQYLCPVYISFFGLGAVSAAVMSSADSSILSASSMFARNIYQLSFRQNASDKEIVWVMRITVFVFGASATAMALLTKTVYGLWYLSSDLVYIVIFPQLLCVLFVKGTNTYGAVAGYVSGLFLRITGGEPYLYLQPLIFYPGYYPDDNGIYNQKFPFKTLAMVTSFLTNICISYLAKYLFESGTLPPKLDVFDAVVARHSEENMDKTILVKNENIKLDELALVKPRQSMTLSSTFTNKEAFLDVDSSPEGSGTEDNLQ
As to the kind of experiment: CHT inhibitors, dose response, cell-based, 5-point CRC, membrane potential dye (AID 504840). Format: functional.

Another test can be described thus: cells. Format: functional.
Test [7] in a line: THP-1 cell cytotoxicity, dose response, cytotoxicity control for non-replicating M. tuberculosis project (AID 489025). Format: functional.
Test [8] in a line: C. albicans growth with fluconazole, confirmation, fluorescence, retest (AID 2467). The class given is functional, cell-based.
The nature of test [9]: NIH-3T3 fibroblast cytotoxicity, dose response, cytotoxicity control, cell-based, fluorescence, Alamar Blue, secondary assay (AID 2327).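 Further: NIH-3T3 mouse fibroblasts cultured with fluconazole at 8 µg/mL.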 The class given is functional. On the technique in general: Alamar Blue is a resazurin reagent that responds to reducing activity.
For another test, the target named is T4, Protein skinhead-1 (Caenorhabditis elegans, UniProt P34707).
T4 sequence (P34707 whole entry): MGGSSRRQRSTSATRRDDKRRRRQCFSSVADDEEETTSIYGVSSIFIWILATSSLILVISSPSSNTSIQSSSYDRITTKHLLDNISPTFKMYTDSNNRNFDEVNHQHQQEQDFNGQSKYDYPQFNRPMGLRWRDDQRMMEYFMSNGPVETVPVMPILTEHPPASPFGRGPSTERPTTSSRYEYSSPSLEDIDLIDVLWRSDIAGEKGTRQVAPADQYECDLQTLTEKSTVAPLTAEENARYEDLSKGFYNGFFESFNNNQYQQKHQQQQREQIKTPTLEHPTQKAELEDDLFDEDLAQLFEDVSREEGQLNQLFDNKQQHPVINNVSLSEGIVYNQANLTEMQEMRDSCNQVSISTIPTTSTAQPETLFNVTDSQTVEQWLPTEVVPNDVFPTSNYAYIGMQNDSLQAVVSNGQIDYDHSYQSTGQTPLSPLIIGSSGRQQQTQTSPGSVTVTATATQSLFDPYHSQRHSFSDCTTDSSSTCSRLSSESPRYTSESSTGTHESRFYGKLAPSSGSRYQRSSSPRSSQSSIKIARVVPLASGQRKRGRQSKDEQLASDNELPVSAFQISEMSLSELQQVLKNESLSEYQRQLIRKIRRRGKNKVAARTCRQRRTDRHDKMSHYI
Format: functional.

In test [10] the target is T5, Rac GTPase-activating protein 1 (Homo sapiens, UniProt Q9H0H5).
T5 sequence (Q9H0H5 whole entry): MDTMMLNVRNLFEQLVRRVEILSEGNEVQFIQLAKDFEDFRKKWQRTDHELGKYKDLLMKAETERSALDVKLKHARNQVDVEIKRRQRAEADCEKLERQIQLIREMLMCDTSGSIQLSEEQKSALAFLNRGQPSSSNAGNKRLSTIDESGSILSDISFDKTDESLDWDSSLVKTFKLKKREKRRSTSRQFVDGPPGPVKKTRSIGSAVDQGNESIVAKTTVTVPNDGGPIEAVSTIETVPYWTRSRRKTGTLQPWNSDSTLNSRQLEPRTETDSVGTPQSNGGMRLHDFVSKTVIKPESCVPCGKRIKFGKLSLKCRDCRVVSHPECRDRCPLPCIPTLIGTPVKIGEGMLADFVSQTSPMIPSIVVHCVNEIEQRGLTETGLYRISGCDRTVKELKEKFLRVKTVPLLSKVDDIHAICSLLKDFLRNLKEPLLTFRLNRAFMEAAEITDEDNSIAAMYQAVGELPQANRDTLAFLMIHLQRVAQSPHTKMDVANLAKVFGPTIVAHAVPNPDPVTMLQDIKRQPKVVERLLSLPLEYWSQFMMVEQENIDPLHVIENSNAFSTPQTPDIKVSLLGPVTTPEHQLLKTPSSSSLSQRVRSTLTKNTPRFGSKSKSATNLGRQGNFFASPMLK
Put plainly: MgcRacGAP GTPase-activating activity inhibitors, confirmation, biochemical, ADP Hunter fluorescence, primary and confirmatory (AID 624330). The class given is functional.

Test [11] can be described thus: inhibitors of HIV Env-driven cell fusion, dose response, cherry-pick (AID 652057). The class given is functional, cell-based.
The nature of test [12]: ZM109 Env clade C HIV-1 fusion inhibitors, dose response, HeLa effector, CEM target cells, luciferase, cherry-pick (AID 652058). The class given is functional, cell-based.

Calls of active or inactive are those of the source.

For orientation: AC50 means the concentration at which the activity in the assay is half-maximal. On to `COC(=O)C(C)N1C(=O)S/C(=C/c2cc(C)n(C(C)C)c2C)C1=O` (stereo not drawn), for which, in the test with HeLa, the AC50 is 52.9 µM (active). Turning to `CC1CCCCC1NC(=O)CN1C(=O)c2cccc(N)c2C1=O` (stereo not drawn), the IC50 in [1] was 35.5 µM (inactive); in test [2] it was > 66 µM (inactive). In general, EC50 refers to the concentration that produces a half-maximal response. In the case of `CSc1ccccc1NC(=O)Nc1ccc(Cl)cc1`, the EC50 was 46.5 µM (active) in [3] and 68.5 µM (active) in test [4]. For the compound `COc1ccc(C(C(=O)NC2CCCCC2)N(CC2CCCO2)C(=O)C2COc3ccccc3O2)cc1OC` (stereo not drawn), the figures for the EC50 in test [3] and in [4] were 19.5 µM (active) and 12.7 µM (active), respectively. In the case of `COC(=O)CN1C(=O)C2(C(C#N)=C(N)Oc3[nH]nc(-c4cccs4)c32)c2ccccc21` (stereo not drawn), the IC50 on Aminopeptidase N is 36.7 µM (active).

For the compound `CCOc1ccccc1C(=O)N1CCN=C1SCc1cccnc1`, the IC50 in [1] and in test [2] was > 66 µM (inactive) each time. Consider `COc1ccc(-c2ccc3ccccc3n2)cc1OC`, for which, in the test on HeLa, the AC50 was 46.8 µM (active). As to `COc1ccc(-c2nn(CCC(=O)O)cc2/C=C2\SC(N)=NC2=O)cc1OC`, the IC50 in test [5] was 4.63 µM (active). Turning to `CN1CCC(N(C)c2nc(-c3ccc([N+](=O)[O-])cc3)nc3ccccc23)CC1`, the IC50 in test [5] was 3.99 µM (active). Further, the EC50 is 4.29 µM (active) in test [3] and 5.17 µM (active) in test [4]. With `COc1ccccc1C(=O)/C=C/c1ccc(N2CCCCC2)c([N+](=O)[O-])c1`, the 50% effective concentration (EC50) was 4.48 µM (active) in [3] and 5.52 µM (active) in [4].

With `O=C(CSc1n[nH]c(-c2ccccc2)n1)Nc1ncc(Br)cc1Br`, the IC50 in test [6] was 14.5 µM (active).

With `Cc1cc(OC(C)C(=O)Nc2ccc(S(=O)(=O)Nc3onc(C)c3C)cc2)cc(C)c1Cl` (stereo not drawn), the IC50 in test [6] is 3.98 µM (active). For orientation: CC50 means the concentration at which the toxic effect on the cells reaches its halfway point. In the case of `Nc1ccc2nc3c(c(Cl)c2c1)CCCC3`, the IC50 in the test “cells” was 13.7 µM (active). Moreover, the CC50 in test [7] is 2.79 µM (active). With `COCC(C)n1c(SCC(=O)Nc2nccs2)nc2ccccc2c1=O` (stereo not drawn), the IC50 in test [1] and in [2] was > 66 µM (inactive) in each case. In the case of `CC(C)OCCCNC(=O)c1sc(=S)n(C)c1N`, the IC50 in test [1] and in [2] was > 66 µM (inactive) throughout. With `CSC(=Nc1ccc(Cl)cc1)NS(=O)(=O)c1cccs1`, the EC50 was 1.15 µM (active) in [8] and > 150 µM (inactive) in test [9]. For the compound `c1ccc2sc(SCc3ccc(-c4nnco4)cc3)nc2c1`, the IC50 on Protein skinhead-1 was 32.7 µM (active); in “cells”, 27.4 µM (active). For the same compound, in [7], the half-maximal cytotoxic concentration (CC50) was > 40 µM (active). Turning to `Cc1cccc(C)c1OCc1cc(C(=O)N2CCN(C3CCCC3)CC2)no1`, the IC50 on Protein skinhead-1 is > 100 µM (inactive); in test [6], 19.1 µM (active).

Turning to `CCc1nc(Nc2ccc(N3CCN(C(C)=O)CC3)cc2)c2oc3ccccc3c2n1`, the IC50 in test [5] is 5.67 µM (not active); in [10], 36.8 µM (active). With `CN(C(=S)NC(=O)c1ccccc1)c1c(N)n(Cc2ccccc2)c(=O)[nH]c1=O`, the IC50 in test [1] and in test [2] was > 66 µM (inactive) in each case. For the compound `COC(=O)[C@@]1(C)[C@H]2C(=O)N(Cc3ccccc3)C(=O)[C@H]2[C@H]2CN=C(SCC(=O)c3ccccc3)N21`, the IC50 in test [1] and in test [2] was > 66 µM (inactive) in each case. Turning to `CC1=C(C(=O)Nc2cccc(C(=O)NC3CCCCC3C)c2)SCCO1` (stereo not drawn), the IC50 in test [6] was 13.2 µM (active). Turning to `O=C(NCc1ccccc1)[C@@H]1CCCN1C(=O)[C@@H]1CCCN1C(=O)c1cccc2ccccc12`, the AC50 was 54.2 µM (active) in test [11] and 36 µM (active) in [12]. As for `O=C(Cc1ccc(F)cc1)N/N=C/c1ccc(-c2ccc(Cl)c(C(=O)O)c2)o1`, the IC50 at Aminopeptidase N is 22.9 µM (active). For `C/C(=N\N=C(N)N)c1ccc(Cl)cc1Cl`, the IC50 in test [6] was 14.8 µM (active).
